Laboratory results reported in patent publication US4386103A, “Dichloroamino acid derivatives useful as potent germicidal and fungicidal agents” (Merck & Co., Inc., priority 1981, dated 1983).

Columns and labels:
Assay type in all cases: cell-based
Staphylococcus aureus = assay: Contact germicidal screen, Staphylococcus aureus ATCC No. 6538
Method: (§1) The organisms used in the contact germicidal screen are all maintained as stock cultures on nutrient agar […] 4° C. They are transferred and biochemically diagnosed monthly. The five organisms used are: The media used are: […] Overnight cultures of the test organisms are grown in tryptose phosphate broth. After 15-16 hours, the cultures are centrifuged at […] for 15 minutes, and the supernatant replaced with fresh warm (37° C.) media. After two hours of incubation, the absorbance of the culture at 650 nm is determined and diluted with nutrient broth to 1×10^7 colony forming units per ml (using a previous determined standard curve: colony forming units/ml vs. absorbance at 650). The diluted cultures are maintained at 4°-8° C. throughout the screen. The compounds are weighed into sterile 100 ml volumetric flasks, and immediately before screening dissolved in one of the following buffers: 0.1 M NaOAc pH 4.6 or 0.1 M NaH2 PO4 pH 7.0. If solubility poses a problem, 10-30% methanol is used to effect solution. Two denaturing agents are also tested: […] Horse Serum restored with 100 ml distilled water and 10% Trition×100. When used, 2.5 ml of the denaturing agent is mixed with 2.5 ml of double strength test solution thirty minutes before the bacterial suspension is added. The screen is initiated when 0.2 ml of the bacterial suspension is added to 5.0 ml of the test solution contained in a sterile 25 ml glass stoppered flask. At intervals of 0.5, 2.5, 5.0, 10.0 and 15.0 minutes, a loopful of the inoculated test solution is subcultured into 5 ml of sterile nutrient broth and mixed with a vortex, the high dilution serving to stop the action of the compound. All of the subculture tubes are incubated at 37° C. and checked for signs of growth by turbidity at 1, 3, 5 and 7 days. The earliest subculture time at which no growth is present is considered the endpoint and is recorded as the sterilization time. An aliquot of 0.2 ml of the diluted culture is transferred to 5 ml of buffer to simulate 0.2 ml in 5 ml of test solution. (a) Purity: A loopful of the inoculated buffer is streaked onto nutrient agar to check colony morphology and lack of contaminants. (b) Viability: A loopful of the inoculated buffer is subcultured to 5 ml of nutrient broth as in the screen and incubated at 37° C. for 24 hours. (c) Dilution of the Test Solution: A loopful of the test solution is transferred to a 5 ml tube of nutrient broth, and a loopful of the inoculated buffer is transferred to the same tube of broth. […] (d) Purity of Organisms in the Test Solution: After the 15 minute subculture, a loopful of the inoculated test solution is streaked onto nutrient agar to insure that contamination has not occurred during the screen. (e) lack of Bactericidal Activity of Buffers and Other Solvents: Before a buffer or other solvent is used as a diluent, it is screened against the five organisms to insure that the buffer or solvent has no antibacterial activity itself.

[1] = system: Staphylococcus epidermidis; assay: Contact germicidal screen, Staphylococcus epidermidis ATCC No. 12228
Method: as §1

Bacillus subtilis = assay: Contact germicidal screen, Bacillus subtilis ATCC No. 60511
Method: as §1

[2] = system: Trychophyton mentagrophytes; assay: Contact fungicidal screen, Trychophyton mentagrophytes; details: 0.1M NaOAc pH 4.6
germs = assay: Germicidal activity, lowest active concentration; details: read-out: concentration at which germicidal activity is shown
[3] = 10.0+ PPM, 0.1M NaOAc pH 4.6, screened simultaneously with four other compounds
[4] = 51.0 PPM, Triton X100 (10% solution):pH 4.6 buffer 1:1
[5] = 51.0 PPM, horse serum:pH 4.6 buffer 1:1
[6] = 300 PPM with 50% Horse Serum, 0.1M NaOAc pH 4.6
[7] = 300 PPM with 50% Triton X100, 0.1M NaOAc pH 4.6
[8] = 300 PPM, pH 4.6 buffer with 10% serum
[9] = 300 PPM, pH 4.6 buffer with 20% serum
[10] = 300 PPM, pH 4.6 buffer with 35% serum
[11] = 304.6 PPM, horse serum:pH 4.6 buffer 1:1
[12] = 304.8 PPM, Triton X100 (10% solution):pH 4.6 buffer 1:1
[13] = 606.9 PPM, pH 4.6 buffer with 33% serum
[14] = 899.25 PPM, pH 4.6 buffer with 25% serum
[15] = 1000 PPM with 50% Horse Serum, 0.1M NaOAc pH 4.6
[16] = 1001.2 PPM, horse serum:pH 4.6 buffer 1:1
[17] = 1016.0 PPM, 0.1M NaH2PO4 pH 7.0

CC(C)(CC(=O)O)N(Cl)Cl [(II)]
Sterilization Time (Staphylococcus aureus; 1.8 PPM, 0.1M NaOAc pH 4.6): 15.0 min
Sterilization Time (Staphylococcus aureus; 4.5 PPM, 0.1M NaOAc pH 4.6): 10.0 min
Sterilization Time (Staphylococcus aureus; [3]): 2.5 min
Sterilization Time (summary) (Staphylococcus aureus; 10 PPM, 0.1M NaOAc pH 4.6): 2.5 min
Sterilization Time (Staphylococcus aureus; 10.0 PPM, 0.1M NaOAc pH 4.6): 2.5 min
Sterilization Time (Staphylococcus aureus; 12.2 PPM, 0.1M NaOAc pH 4.6): 2.5 min
Sterilization Time (Staphylococcus aureus; 32.1 PPM, 0.1M NaOAc pH 4.6): 2.5 min
Sterilization Time (Staphylococcus aureus; [4]): 2.5 min
Sterilization Time (Staphylococcus aureus; [5]): 15 min
Sterilization Time (Staphylococcus aureus; 71.7 PPM, 0.1M NaOAc pH 4.6): 0.5 min
Sterilization Time (summary) (Staphylococcus aureus; 100 PPM, 0.1M NaOAc pH 4.6): 0.5 min
Sterilization Time (Staphylococcus aureus; 104.7 PPM, 0.1M NaOAc pH 4.6): 0.5 min
Sterilization Time (Staphylococcus aureus; 107.8 PPM, 0.1M NaH2PO4 pH 7.0): 10.0 min
Sterilization Time (Staphylococcus aureus; 298.9 PPM, 0.1M NaOAc pH 4.6): 0.5 min
Sterilization Time (summary) (Staphylococcus aureus; [6]): 15 min
Sterilization Time (summary) (Staphylococcus aureus; [7]): 0.5 min
Sterilization Time (Staphylococcus aureus; [8]): 0.5 min
Sterilization Time (Staphylococcus aureus; [9]): 2.5 min
Sterilization Time (Staphylococcus aureus; [10]): 10.0 min
Sterilization Time (Staphylococcus aureus; [11]): 15 min
Sterilization Time (Staphylococcus aureus; [12]): 0.5 min
Sterilization Time (Staphylococcus aureus; 316.6 PPM, 0.1M NaH2PO4 pH 7.0): 5.0 min
Sterilization Time (Staphylococcus aureus; [13]): 0.5 min
Sterilization Time (Staphylococcus aureus; [14]): 0.5 min
Sterilization Time (summary) (Staphylococcus aureus; [15]): 0.5 min
Sterilization Time (summary) (Staphylococcus aureus; 1000 PPM, 0.1M NaOAc pH 4.6): 0.5 min
Sterilization Time (Staphylococcus aureus; [16]): 0.5 min
Sterilization Time (Staphylococcus aureus; 1014.8 PPM, 0.1M NaOAc pH 4.6): 0.5 min
Sterilization Time (Staphylococcus aureus; [17]): 2.5 min
Sterilization Time ([1]; 1.8 PPM, 0.1M NaOAc pH 4.6): 15 min
Sterilization Time ([1]; 4.5 PPM, 0.1M NaOAc pH 4.6): 10.0 min
Sterilization Time [1, 3]: 2.5 min
Sterilization Time (summary) ([1]; 10 PPM, 0.1M NaOAc pH 4.6): 2.5 min
Sterilization Time ([1]; 10.0 PPM, 0.1M NaOAc pH 4.6): 5.0 min
Sterilization Time ([1]; 12.2 PPM, 0.1M NaOAc pH 4.6): 2.5 min
Sterilization Time ([1]; 32.1 PPM, 0.1M NaOAc pH 4.6): 2.5 min
Sterilization Time [1, 4]: 2.5 min
Sterilization Time [1, 5]: 15 min
Sterilization Time ([1]; 71.7 PPM, 0.1M NaOAc pH 4.6): 0.5 min
Sterilization Time (summary) ([1]; 100 PPM, 0.1M NaOAc pH 4.6): 0.5 min
Sterilization Time ([1]; 104.7 PPM, 0.1M NaOAc pH 4.6): 0.5 min
Sterilization Time ([1]; 107.8 PPM, 0.1M NaH2PO4 pH 7.0): 15.0 min
Sterilization Time ([1]; 298.9 PPM, 0.1M NaOAc pH 4.6): 0.5 min
Sterilization Time (summary) [1, 6]: 15 min
Sterilization Time (summary) [1, 7]: 0.5 min
Sterilization Time [1, 8]: 0.5 min
Sterilization Time [1, 9]: 2.5 min
Sterilization Time [1, 10]: 15.0 min
Sterilization Time [1, 11]: 15 min
Sterilization Time [1, 12]: 0.5 min
Sterilization Time ([1]; 316.6 PPM, 0.1M NaH2PO4 pH 7.0): 10.0 min
Sterilization Time [1, 13]: 0.5 min
Sterilization Time [1, 14]: 0.5 min
Sterilization Time (summary) [1, 15]: 0.5 min
Sterilization Time (summary) ([1]; 1000 PPM, 0.1M NaOAc pH 4.6): 0.5 min
Sterilization Time [1, 16]: 0.5 min
Sterilization Time ([1]; 1014.8 PPM, 0.1M NaOAc pH 4.6): 0.5 min
Sterilization Time [1, 17]: 2.5 min
Sterilization Time (Bacillus subtilis; 1.8 PPM, 0.1M NaOAc pH 4.6): 5.0 min
Sterilization Time (Bacillus subtilis; 4.5 PPM, 0.1M NaOAc pH 4.6): 2.5 min
Sterilization Time (Bacillus subtilis; [3]): 2.5 min
Sterilization Time (summary) (Bacillus subtilis; 10 PPM, 0.1M NaOAc pH 4.6): 2.5 min
Sterilization Time (Bacillus subtilis; 10.0 PPM, 0.1M NaOAc pH 4.6): 2.5 min
Sterilization Time (Bacillus subtilis; 12.2 PPM, 0.1M NaOAc pH 4.6): 2.5 min
Sterilization Time (Bacillus subtilis; 32.1 PPM, 0.1M NaOAc pH 4.6): 0.5 min
Sterilization Time (Bacillus subtilis; [4]): 0.5 min
Sterilization Time (Bacillus subtilis; [5]): 15 min
Sterilization Time (Bacillus subtilis; 71.7 PPM, 0.1M NaOAc pH 4.6): 0.5 min
Sterilization Time (summary) (Bacillus subtilis; 100 PPM, 0.1M NaOAc pH 4.6): 0.5 min
Sterilization Time (Bacillus subtilis; 104.7 PPM, 0.1M NaOAc pH 4.6): 0.5 min
Sterilization Time (Bacillus subtilis; 107.8 PPM, 0.1M NaH2PO4 pH 7.0): 5.0 min
Sterilization Time (Bacillus subtilis; 298.9 PPM, 0.1M NaOAc pH 4.6): 0.5 min
Sterilization Time (summary) (Bacillus subtilis; [6]): 2.5 min
Sterilization Time (summary) (Bacillus subtilis; [7]): 0.5 min
Sterilization Time (Bacillus subtilis; [8]): 0.5 min
Sterilization Time (Bacillus subtilis; [9]): 0.5 min
Sterilization Time (Bacillus subtilis; [10]): 2.5 min
Sterilization Time (Bacillus subtilis; [11]): 2.5 min
Sterilization Time (Bacillus subtilis; [12]): 0.5 min
Sterilization Time (Bacillus subtilis; 316.6 PPM, 0.1M NaH2PO4 pH 7.0): 2.5 min
Sterilization Time (Bacillus subtilis; [13]): 0.5 min
Sterilization Time (Bacillus subtilis; [14]): 0.5 min
Sterilization Time (summary) (Bacillus subtilis; [15]): 0.5 min
Sterilization Time (summary) (Bacillus subtilis; 1000 PPM, 0.1M NaOAc pH 4.6): 0.5 min
Sterilization Time (Bacillus subtilis; [16]): 0.5 min
Sterilization Time (Bacillus subtilis; 1014.8 PPM, 0.1M NaOAc pH 4.6): 0.5 min
Sterilization Time (Bacillus subtilis; [17]): 0.5 min
Sterilization Time ([2]; 10 PPM): 5.0 min
Sterilization Time ([2]; 100 PPM): 0.5 min
Sterilization Time ([2]; 1000 PPM): 0.5 min
minimal effective concentration (germs): ≤ 5 µg/mL
